Assay results from US4895864A, “Antibiotic TAN-950A, its production and use” (Takeda Chemical Industries, Ltd., priority 1987, dated 1990).
Structures can show the parent of a compound that is named as a salt. Where two headings read alike, the source gives them in different places.

Assays:
[1] = tested on: Aspergillus fumigatus IFO 6344; assay: Paper disc agar diffusion, growth-inhibition zone; assay type: cell-based; settings: IFO6344, 48 h, monosodium salt, disc 1000 μg/ml, 28 °C, read-out: Diameter of growth-inhibition zone
Description: (§1) Paper discs (8 mm. in diameter, manufactured by Toyo Seisakusho) immersed in an aqueous solution of the antibiotic TAN-950A (monosodium salt) (1000 μg/ml) were put on agar plates seeded with the test organism, and these agar plates were incubated at a given […] for a given period of time. In the Table, "0" means no formation of the growth-inhibition zone. Culture media employed are as follows:
(§2) B: Yeast nitrogen base agar medium (Difco Laboratories, USA) supplemented with L-asparagine (0.17%)
(§3) D: Yeast nitrogen base agar medium (Difco Laboratories, USA) supplemented with glucose (2%) and agar (1.5%)

[2] = tested on: Candida albicans IFO 0583; assay: Paper disc agar diffusion, growth-inhibition zone; assay type: cell-based; settings: IFO0583, 48 h, monosodium salt, disc 1000 μg/ml, 28 °C, read-out: Diameter of growth-inhibition zone
Description: as §1, §2, §3

Candida utilis IFO 0619 = assay: Paper disc agar diffusion, growth-inhibition zone; assay type: cell-based; settings: monosodium salt, disc 1000 μg/ml, 28 °C, 48 h, 0 = no zone
Description: as §1, §2, §3

[3] = tested on: Cryptococcus neoformans IFO 0410; assay: Paper disc agar diffusion, growth-inhibition zone; assay type: cell-based; settings: IFO0410, 48 h, monosodium salt, disc 1000 μg/ml, 28 °C, read-out: Diameter of growth-inhibition zone
Description: as §1, §2, §3

[4] = tested on: Filobasidium uniguttulatum IFO 0699; assay: Paper disc agar diffusion, growth-inhibition zone; assay type: cell-based; settings: IFO0699, 48 h, monosodium salt, disc 1000 μg/ml, 28 °C, read-out: Diameter of growth-inhibition zone
Description: as §1, §2, §3

[5] = tested on: Penicillium chrysogenum IFO 4626; assay: Paper disc agar diffusion, growth-inhibition zone; assay type: cell-based; settings: IFO4626, monosodium salt, disc 1000 μg/ml, 28 °C, read-out: Diameter of growth-inhibition zone
Description: as §1, §2, §3

[6] = tested on: Saccharomyces cerevisiae IFO 0209; assay: Paper disc agar diffusion, growth-inhibition zone; assay type: cell-based; settings: IFO0209, 48 h, monosodium salt, disc 1000 μg/ml, 28 °C, read-out: Diameter of growth-inhibition zone
Description: as §1, §2, §3

[7] = tested on: Torulopsis glabrata IFO 1085; assay: Paper disc agar diffusion, growth-inhibition zone; assay type: cell-based; settings: Nakaseomyces glabratus, IFO1085, 48 h, monosodium salt, disc 1000 μg/ml, 28 °C, read-out: Diameter of growth-inhibition zone
Description: as §1, §2, §3

[8] = tested on: Candida parakrusei IFO0640; assay: Paper disc agar diffusion, growth-inhibition zone; assay type: cell-based; settings: monosodium salt, disc 1000 μg/ml, medium D, 28 °C, 48 h, read-out: Diameter of growth-inhibition zone
Description: as §1, §3

[9] = tested on: Candida parapsilosis IFO1396; assay: Paper disc agar diffusion, growth-inhibition zone; assay type: cell-based; settings: Lodderomyces parapsilosis, monosodium salt, disc 1000 μg/ml, medium D, 28 °C, 48 h, read-out: Diameter of growth-inhibition zone
Description: as §1, §3

[10] = tested on: Candida tropicalis IFO0006; assay: Paper disc agar diffusion, growth-inhibition zone; assay type: cell-based; settings: monosodium salt, disc 1000 μg/ml, medium D, 28 °C, 48 h, read-out: Diameter of growth-inhibition zone
Description: as §1, §3

[11] = tested on: Microsporum gypseum IFO 6075; assay: Paper disc agar diffusion, growth-inhibition zone; assay type: cell-based; settings: Nannizzia gypsea, IFO6075; monosodium salt, disc 1000 μg/ml; medium D, 28 °C, 72 h; read-out: Diameter of growth-inhibition zone
Description: as §1, §3

[12] = tested on: Trichophyton rubrum IFO 5467; assay: Paper disc agar diffusion, growth-inhibition zone; assay type: cell-based; settings: IFO5467, monosodium salt, disc 1000 μg/ml, 28 °C, read-out: Diameter of growth-inhibition zone
Description: as §1
A: Sabouraud's dextrose agar medium
as §3

[13] = tested on: Bacillus subtilis PCI 219; assay: Paper disc agar diffusion, growth-inhibition zone; assay type: cell-based; settings: PCI219, monosodium salt, disc 1000 μg/ml, medium C, 37 °C, 20 h, 0 = no zone, read-out: Diameter of growth-inhibition zone
Description: as §1
(§4) C: Trypticase soy agar (Becton Dickinson Co., USA)

[14] = tested on: Escherichia coli NIH JC-2; assay: Paper disc agar diffusion, growth-inhibition zone; assay type: cell-based; settings: NIHJC2, monosodium salt, disc 1000 μg/ml, medium C, 37 °C, 20 h, 0 = no zone, read-out: Diameter of growth-inhibition zone
Description: as §1, §4

Candida albicans [15] = assay: TLC-bioautography using Candida albicans; assay type: cell-based; settings: aqueous layer of culture filtrate; cellulose f, acetonitrile:water (3:1)
Candida albicans [16] = assay: Therapeutic effect on experimental candidosis in mice; assay type: in vivo; settings: intravenously infected, twice administration, total of dosages
mice = assay: Acute toxicity in mice; assay type: in vivo; settings: intravenous, subdermal, intraperitoneal or oral, 4000 mg/kg
Solubility = assay type: physicochemical
Excerpt: The physico-chemical properties of TAN-950A (monosodium salt) obtained in Example 2 described later are as follows.

## N[C@@H](Cc1c[nH]oc1=O)C(=O)O [TAN-950A]
[1]; medium B, 0 = no zone
  zone of inhibition at 1000 µg/mL: 0 mm
[1]; medium D
  zone of inhibition at 1000 µg/mL: 57 mm
[2]; medium B
  zone of inhibition at 1000 µg/mL: 21 mm
[2]; medium D
  zone of inhibition at 1000 µg/mL: 34 mm
Candida utilis IFO 0619; Williopsis jadinii, IFO0619, medium B, read-out: Diameter of growth-inhibition zone
  zone of inhibition at 1000 µg/mL: 0 mm
Candida utilis IFO 0619; medium D
  Diameter of growth-inhibition zone: 0 mm
[3]; medium B, 0 = no zone
  zone of inhibition at 1000 µg/mL: 0 mm
[3]; medium D
  zone of inhibition at 1000 µg/mL: 27 mm
[4]; medium B
  zone of inhibition at 1000 µg/mL: 23 mm
[4]; medium D
  zone of inhibition at 1000 µg/mL: 35 mm
[5]; medium B, 66 h, 0 = no zone
  zone of inhibition at 1000 µg/mL: 0 mm
[5]; medium D, 72 h
  zone of inhibition at 1000 µg/mL: 35 mm
[6]; medium B
  zone of inhibition at 1000 µg/mL: 24 mm
[6]; medium D
  zone of inhibition at 1000 µg/mL: 25 mm
[7]; medium B
  zone of inhibition at 1000 µg/mL: 23 mm
[7]; medium D
  zone of inhibition at 1000 µg/mL: 26 mm
[8]
  zone of inhibition at 1000 µg/mL: 43 mm
[9]
  zone of inhibition at 1000 µg/mL: 40 mm
[10]
  zone of inhibition at 1000 µg/mL: 25 mm
[11]
  zone of inhibition at 1000 µg/mL: 41 mm
[12]; medium A, 48 h, 0 = no zone
  zone of inhibition at 1000 µg/mL: 0 mm
[12]; medium D, 72 h
  zone of inhibition at 1000 µg/mL: 47 mm
[13]
  zone of inhibition at 1000 µg/mL: 0 mm
[14]
  zone of inhibition at 1000 µg/mL: 0 mm
Candida albicans [15]
  inhibition zone in TLC-bioautography: inhibition zones

## N[C@@H](Cc1c[nH]oc1=O)C(=O)O [TAN-950A monosodium salt]
Candida albicans [16]; oral
  ED50: 105 mg/kg
Candida albicans [16]; sc, subcutaneous
  ED50: 40 mg/kg
mice
  acute toxicity: No acute toxicity
Solubility; acetone
  Solubility: Sparingly soluble
Solubility; chloroform
  Solubility: Sparingly soluble
Solubility; dimethyl sulfoxide
  Solubility: Soluble
Solubility; ethyl acetate
  Solubility: Sparingly soluble
Solubility; methanol
  Solubility: Soluble
Solubility; water
  Solubility: Soluble
